Data on 1 molecule can be found in patent US12291607B2, “Polymer material and method for producing same” (Osaka University, priority 2019, dated 2025).

The data set can be described thus: Solubility of host (Ac-CDAA) and guest (ADAA) monomers in third polymerizable monomers. It counts as physicochemical. The method, then: The phrase “the host group-containing polymerizable monomer and the guest group-containing polymerizable monomer are dissolved in the third polymerizable monomer” means that the mixture of the host group-containing polymerizable monomer and the guest group-containing polymerizable monomer in a total amount of 1 part by weight or more is dissolved per 100 parts by weight of the third polymerizable monomer at a temperature of 20° C. It is preferable that the mixture of the host group-containing polymerizable monomer and the guest group-containing polymerizable monomer in a total amount of 1 part by weight or more, and particularly preferably 10 parts by weight or more, is dissolved per 100 parts by weight of the third polymerizable monomer at a temperature of 20° C.
The solubility of Ac-CDAA (host group-containing polymerizable monomer) in the following various monomers (third polymerizable monomers) was as follows: • less than 1 g for 100 g of 2EHA (20° C.) • less than 1 g for 100 g of OctA (octyl acrylate) (20° C.) • 10 g or more for 100 g of 2MEA (20° C.) • 10 g or more for 100 g of 4HBA (20° C.) • 10 g or more for 100 g of DMAA (20° C.)
Further, the solubility of ADAA (guest group-containing polymerizable monomer) in the following various monomers (third polymerizable monomers) was as follows: • less than 1 g for 100 g of 2EHA (20° C.) • less than 1 g for 100 g of OctA (20° C.) • 10 g or more for 100 g of 2MEA (20° C.) • 10 g or more for 100 g of 4HBA (20° C.) • 10 g or more for 100 g of DMAA (20° C.)

As for `C=CC(=O)NC12CC3CC(CC(C3)C1)C2` [ADAA, N-(1-adamantyl) acrylamide], the “solubility in 2EHA” value (for 100 g of 2EHA (20° C.)) was “less than 1 g”. In addition, the “solubility in 2MEA” value (for 100 g of 2MEA (20° C.)) is ≥ 10 g. The “solubility in 4HBA” value (for 100 g of 4HBA (20° C.)) is recorded as ≥ 10 g. Under “for 100 g of DMAA (20° C.)”, the “solubility in DMAA” value was ≥ 10 g. Besides, the “solubility in OctA” value (for 100 g of OctA (octyl acrylate) (20° C.)) was “less than 1 g”.
